Target: T1, mGlyT-1b (Mus musculus, UniProt P28571)
T1 construct: host or cells: Flp-in CHO cells, stably transfected
T1 sequence (P28571 1-651 isoform P28571-2): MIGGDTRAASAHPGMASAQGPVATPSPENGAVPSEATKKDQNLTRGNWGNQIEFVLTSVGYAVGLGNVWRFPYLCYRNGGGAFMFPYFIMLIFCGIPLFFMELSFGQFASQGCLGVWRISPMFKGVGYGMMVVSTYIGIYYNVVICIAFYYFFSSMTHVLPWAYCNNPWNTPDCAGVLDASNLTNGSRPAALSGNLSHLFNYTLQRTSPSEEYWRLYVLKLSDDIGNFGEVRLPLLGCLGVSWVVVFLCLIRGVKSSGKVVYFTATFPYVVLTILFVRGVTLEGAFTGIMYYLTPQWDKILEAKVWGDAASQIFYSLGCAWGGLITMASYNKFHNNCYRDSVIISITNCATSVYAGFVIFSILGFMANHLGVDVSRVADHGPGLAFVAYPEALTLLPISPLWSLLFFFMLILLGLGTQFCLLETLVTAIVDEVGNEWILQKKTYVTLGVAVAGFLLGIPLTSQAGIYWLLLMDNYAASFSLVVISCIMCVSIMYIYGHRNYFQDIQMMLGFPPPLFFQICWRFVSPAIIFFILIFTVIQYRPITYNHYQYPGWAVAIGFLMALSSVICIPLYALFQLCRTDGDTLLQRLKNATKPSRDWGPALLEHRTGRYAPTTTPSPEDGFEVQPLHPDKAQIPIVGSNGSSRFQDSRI
Test: Glycine uptake inhibition assay (mGlyT-1b)
Assay type: cell-based
Conditions: inhibition of [3H]-glycine uptake in Flp-in-CHO cells stably transfected with mGlyT1b cDNA; 20 min at 22° C.
Description: DMEM complete medium: Nutrient mixture F-12 (Gibco Life-technologies), fetal bovine serum (FBS) 5%, (Gibco life technologies), Penicillin/Streptomycin 1% (Gibco life technologies), Hygromycin 0.6 mg/ml (Gibco life technologies), Glutamine 1 mM Gibco life technologies)
Uptake buffer (UB): 150 mM NaCl, 10 mM Hepes-Tris, pH 7.4, 1 mM CaCl2, 2.5 mM KCl, 2.5 mM MgSO4, 10 mM (+) D-glucose. Flp-in™—CHO (Invitrogen Cat n° R758-07)cells stably transfected with mGlyT1b cDNA.
Glycine uptake inhibition assay (mGlyT-1b)
On Day 1 mammallian cells, (Flp-in™—CHO), transfected with mGlyT-1b cDNA, were plated at the density of 40,000 cells/well in complete F-12 medium, without hygromycin in 96-well culture plates. On day 2, the medium was aspirated and the cells were washed twice with uptake buffer (UB). The cells were then incubated for 20 min at 22° C. with either (i) no potential competitor, (ii) 10 mM non-radioactive glycine, (iii) a concentration of a potential inhibitor. A range of concentrations of the potential inhibitor was used to generate data for calculating the concentration of inhibitor resulting in 50% of the effect (e.g. IC50, the concentration of the competitor inhibiting glycine uptake of 50%). A solution was then immediately added containing [^3H]-glycine 60 nM (11-16 Ci/mmol) and 25 μM non-radioactive glycine. The plates were incubated with gentle shaking and the reaction was stopped by aspiration of the mixture and washing (three times) with ice-cold UB. The cells were lysed with scintillation liquid, shaken 3 hours and the radioactivity in the cells was counted using a scintillation counter.

| IC50 | Compound |
| --- | --- |
| 4 nM | CNS(=O)(=O)c1ccc(N2CCCC2)c(C(=O)N2CCN(c3ccc(C(F)(F)F)c(F)c3)CC2)c1 [Example 236, 3-[4-(3-Fluoro-4-trifluoromethyl-phenyl)-piperazine-1-carbonyl]-N-methyl-4-pyrrolidin-1-yl-benzenesulfonamide] |
| 10 nM | CNS(=O)(=O)c1ccc(N2CCCCC2)c(C(=O)N2CCN(c3ccc(C#N)c(F)c3)CC2)c1 [Example 248, 3-[4-(4-Cyano-3-fluoro-phenyl)-piperazine-1-carbonyl]-N-methyl-4-piperidin-1-yl-benzenesulfonamide] |
| 1.2 nM | CC(=O)c1ccc(N2CCN(C(=O)c3cc([N+](=O)[O-])ccc3N3CCCCC3)CC2)c(F)c1 [Example 27, 1-{3-Fluoro-4-[4-(5-nitro-2-piperidin-1-yl-benzoyl)-piperazin-1-yl]-phenyl}-ethanone] |
| 2.5 nM | CC(=O)c1ccc(N2CCN(C(=O)c3cc([N+](=O)[O-])ccc3NC(C)C)CC2)c(F)c1 [Example 18, 1-{3-Fluoro-4-[4-(2-isopropylamino-5-nitro-benzoyl)-piperazin-1-yl]-phenyl}-ethanone] |
| 15 nM | CC(=O)c1ccc(N2CCN(C(=O)c3cc([N+](=O)[O-])ccc3N3CCOCC3)CC2)c(F)c1 [Example 1, 1-{4-[4-(2-Morpholin-4-yl-5-nitro-benzoyl)-piperazin-1-yl]-3-fluoro-phenyl}-ethanone] |
| 15 nM | CCN(CC)c1ccc([N+](=O)[O-])cc1C(=O)N1CCN(c2ccc(C(C)=O)cc2F)CC1 [Example 11, 1-{4-[4-(2-Diethylamino-5-nitro-benzoyl)-piperazin-1-yl]-3-fluoro-phenyl}-ethanone] |
| 16 nM | CS(=O)(=O)c1ccc(N2CCCCC2)c(C(=O)N2CCN(c3ccc(C#N)c(F)c3)CC2)c1 [Example 217, 2-Fluoro-4-[4-(5-methanesulfonyl-2-piperidin-1-yl-benzoyl)-piperazin-1-yl]-benzonitrile] |
| 7 nM | CC(=O)c1ccc(N2CCN(C(=O)c3cc([N+](=O)[O-])ccc3N3CCCC(C)C3)CC2)c(F)c1 (centres unmarked) [Example 37, 1-(3-Fluoro-4-{4-[2-(3-methyl-piperidin-1-yl)-5-nitro-benzoyl]-piperazin-1-yl}-phenyl)-ethanone] |
| 19 nM | CS(=O)(=O)c1ccc(N2CCCCC2)c(C(=O)N2CCN(c3ccc(C(F)(F)F)c(F)c3)CC2)c1 [Example 220, [4-(3-Fluoro-4-trifluoromethyl-phenyl)piperazin-1-yl]-(5-methanesulfonyl-2-piperidin-1-yl-phenyl)-methanone] |
| 17 nM | CS(=O)(=O)c1ccc(N2CCCCC2)c(C(=O)N2CCN(c3ccc(C(F)(F)F)cc3F)CC2)c1 [Example 219, [4-(2-Fluoro-4-trifluoromethyl-phenyl)piperazin-1-yl]-(5-methanesulfonyl-2-piperidin-1-yl-phenyl)-methanone] |
| 8 nM | CNS(=O)(=O)c1ccc(N2CCOCC2)c(C(=O)N2CCN(c3ccc(C(F)(F)F)cc3)CC2)c1 [Example 131, N-Methyl-4-morpholin-4-yl-3-[4-(4-trifluoromethyl-phenyl)-piperazine-1-carbonyl]-benzenesulfonamide] |
| 19 nM | CNS(=O)(=O)c1ccc(N2CCCCC2)c(C(=O)N2CCN(c3ccc(C(F)(F)F)c(F)c3)CC2)c1 [Example 251, 3-[4-(3-Fluoro-4-trifluoro-methyl-phenyl)-piperazine-1-carbonyl]-N-methyl-4-piperidin-1-yl-benzenesulfonamide] |
| 15 nM | CNS(=O)(=O)c1ccc(N2CCCCC2)c(C(=O)N2CCN(c3ccc(C(F)(F)F)cc3F)CC2)c1 [Example 250, 3-[4-(2-Fluoro-4-trifluoromethyl-phenyl)-piperazine-1-carbonyl]-N-methyl-4-piperidin-1-yl-benzenesulfonamide] |
| 2.3 nM | CC(=O)c1ccc(N2CCN(C(=O)c3cc([N+](=O)[O-])ccc3NC3CCCC3)CC2)c(F)c1 [Example 21, 1-{4-[4-(2-Cyclopentylamino-5-nitro-benzoyl)-piperazin-1-yl]-3-fluoro-phenyl}-ethanone] |
| 18 nM | CNS(=O)(=O)c1ccc(N2CCCCC2)c(C(=O)N2CCN(c3ccc(C(C)=O)cc3F)CC2)c1 [Example 245, 3-[4-(4-Acetyl-2-fluoro-phenyl)-piperazine-1-carbonyl]-N-methyl-4-piperidin-1-yl-benzene-sulfonamide] |
| 8 nM | CC(=O)c1ccc(N2CCN(C(=O)c3cc([N+](=O)[O-])ccc3N3CCCC3C)CC2)c(F)c1 (centres unmarked) [Example 38, 1-(3-Fluoro-4-{4-[2-(2-methyl-pyrrolidin-1-yl)-5-nitro-benzoyl]-piperazin-1-yl}-phenyl)-ethanone] |
| 19 nM | CC(=O)c1ccc(N2CCN(C(=O)c3cc([N+](=O)[O-])ccc3N3CCCC(O)C3)CC2)c(F)c1 (centres unmarked) [Example 45, 1-(3-Fluoro-4-{4-[2-(3-hydroxy-piperidin-1-yl)-5-nitro-benzoyl]-piperazin-1-yl}-phenyl)-ethanone] |

— patent publication US7427612B2, “Benzoyl-piperazine derivatives” (Hoffmann-La Roche Inc., priority 2003, dated 2008)
